# Data: ChEMBL document CHEMBL1134781, “1,2-Benzothiazine 1,1-dioxide P(2)-P(3) peptide mimetic aldehyde calpain I inhibitors” (J Med Chem, 2001)
# What was measured:
# [1] = molecular target: MOLT-4; test: Inhibitory concentration against MOLT-4 cells (human T-cell leukemia cell line)
# [2] = molecular target: T1, Calpain-1 catalytic subunit (Homo sapiens, UniProt P07384); test: (§1) Inhibitory activity towards human calpain I
# T1 sequence (P07384 whole entry): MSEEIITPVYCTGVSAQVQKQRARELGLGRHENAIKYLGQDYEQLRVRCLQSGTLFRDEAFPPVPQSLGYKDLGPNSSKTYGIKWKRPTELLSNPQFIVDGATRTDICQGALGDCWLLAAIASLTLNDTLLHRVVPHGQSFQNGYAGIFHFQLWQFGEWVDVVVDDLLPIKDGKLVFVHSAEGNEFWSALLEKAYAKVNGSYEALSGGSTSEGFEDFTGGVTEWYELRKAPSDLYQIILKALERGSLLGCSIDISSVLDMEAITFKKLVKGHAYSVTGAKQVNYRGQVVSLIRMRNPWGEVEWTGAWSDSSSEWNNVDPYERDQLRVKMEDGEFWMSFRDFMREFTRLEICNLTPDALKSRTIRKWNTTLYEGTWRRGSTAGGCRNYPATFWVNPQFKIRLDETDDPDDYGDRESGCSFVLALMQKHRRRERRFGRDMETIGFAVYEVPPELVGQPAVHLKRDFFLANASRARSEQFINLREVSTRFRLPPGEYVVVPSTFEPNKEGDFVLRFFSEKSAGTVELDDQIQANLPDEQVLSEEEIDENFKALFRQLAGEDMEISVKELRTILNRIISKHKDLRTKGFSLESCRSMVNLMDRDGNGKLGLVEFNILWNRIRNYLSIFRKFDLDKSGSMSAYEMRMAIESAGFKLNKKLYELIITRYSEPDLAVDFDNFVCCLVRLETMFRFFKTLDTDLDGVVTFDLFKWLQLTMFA
# [3] = molecular target: T1, Calpain-1 catalytic subunit; test: Inhibitory activity against calpain-I
# [4] = molecular target: T1, Calpain-1 catalytic subunit; test: as §1; remark: listed apart in the source
# [5] = molecular target: T1, Calpain-1 catalytic subunit; test: Compound was evaluated for inhibitory activity towards human calpain I isomer 1
structure (smiles),measurement,setting,value
COc1cc2c(cc1OC)S(=O)(=O)OC(C(=O)N[C@H](C=O)Cc1ccccc1)C2 (mixture of isomers),IC50,[1],2200 nM
COc1cc2c(cc1OC)S(=O)(=O)N(Cc1ccccc1)C(C(=O)N[C@H](C=O)Cc1ccccc1)C2 (stereo partly specified),IC50,[2],1000 nM
COC1=C(C(=O)N[C@H](C=O)Cc2ccccc2)N(C)S(=O)(=O)c2ccccc21,IC50,[1],3200 nM
CN1C(C(=O)N[C@H](C=O)Cc2ccccc2)Cc2cc(Cl)ccc2S1(=O)=O (stereo partly specified),IC50,[1],2200 nM
CS(=O)(=O)NC(COCc1ccccc1)C(=O)N[C@H](C=O)Cc1ccccc1 (stereo partly specified),IC50,[3],11 nM
CN1C(C(=O)N[C@H](C=O)CCCCNS(=O)(=O)c2ccccc2)Cc2cc3c(cc2S1(=O)=O)OCCO3 (stereo partly specified),IC50,[1],1800 nM
CC(C)CN1C(C(=O)N[C@H](C=O)Cc2ccccc2)Cc2cc(Cl)ccc2S1(=O)=O (stereo partly specified),IC50,[2],200 nM
same,IC50,[4],200 nM
CN1C(C(=O)N[C@H](C=O)Cc2ccccc2)Cc2cc(N3CCOCC3)ccc2S1(=O)=O (stereo partly specified),IC50,[2],500 nM
same,IC50,[1],4100 nM
CN1C(C(=O)N[C@H](C=O)Cc2ccccc2)=Cc2cc3c(cc2S1(=O)=O)OCCO3,IC50,[1],900 nM
COc1cc2c(cc1OC)S(=O)(=O)N(C)C(C(=O)N[C@H](C=O)Cc1ccccc1)C2 (stereo partly specified),IC50,[1],1900 nM
CN1C(C(=O)N[C@H](C=O)Cc2ccccc2)Cc2cc3c(cc2S1(=O)=O)OCCO3 (mixture of isomers),IC50,[1],2000 nM
CN1C(C(=O)N[C@H](C=O)Cc2ccccc2)Cc2ccccc2S1(=O)=O (stereo partly specified),IC50,[1],1700 nM
CN1C(=O)c2ccccc2CC1C(=O)N[C@H](C=O)Cc1ccccc1 (stereo partly specified),IC50,[2],~1000 nM
same,IC50,[5],85 nM
O=C[C@H](Cc1ccccc1)NC(=O)C1Cc2ccccc2C(=O)N1 (stereo partly specified),IC50,[5],~5000 nM
CC(C)N1C(C(=O)N[C@H](C=O)Cc2ccccc2)Cc2cc3c(cc2S1(=O)=O)OCCO3 (mixture of isomers),IC50,[1],2600 nM
O=C[C@H](Cc1ccccc1)NC(=O)C(Cc1ccccc1)NS(=O)(=O)c1ccccc1 (stereo partly specified),IC50,[3],20 nM
COc1cc2c(cc1OC)S(=O)(=O)NC(C(=O)N[C@H](C=O)Cc1ccccc1)C2 (stereo partly specified),IC50,[2],800 nM
same,IC50,[4],700 nM
